In paper PMC5225183, “Fingerprinting of neurotoxic compounds using a mouse embryonic stem cell dual luminescence reporter assay” (Archives of Toxicology, 2016):
Where two headings read alike, the source gives them in different places.

How the values were obtained:
[1] = PBPK reverse modeling of nominal equivalent concentration (NEC), human data
Protocol: To evaluate the human relevance of in vitro concentrations found to be toxic in this study, an in vitro–in vivo comparison of the toxicity data was performed using a physiology-based pharmacokinetic (PBPK) reverse modeling approach. […] The lipid content and albumin concentrations of the test media N2 and BHK medium were calculated on the basis of the available information provided by the suppliers (Fig. S2A). The data on rat plasma have been adopted from (Verwei et al. [2006]). The original references are (Barber et al. [1990]) for albumin and (DeJongh et al. [1997]) for lipids. Human plasma values were taken from (Gulden and Seibert [2003]). The original data on albumin are from (Lindup [1987]) and for lipids from (Patterson et al. [1988]). Total protein concentrations were calculated based on the assumption that the protein molar mass is similar to the one of albumin (66 kDa). Albumin was assumed to represent 60 and 48 % of the total serum proteins (mg/ml) in human and rat (Baker et al. [1979]; Busher [1990]) (Fig. S2A).
(a) Developmental toxicity (DT)—inducing concentrations were extrapolated from the in vivo study reported in the document by the Australian Therapeutic Goods Administration (Australian Therapeutic Goods Administration [2014]). In an embryo-fetal developmental toxicity study in rats, abiraterone acetate induced developmental toxicity when administered at oral doses of 10, 30 or 100 mg/kg/day throughout the period of organogenesis (gestational days 6–17). Findings include embryo-fetal lethality (increased postimplantation loss and decreased number of living fetuses), fetal developmental delay (skeletal effects), and urogenital effects (bilateral ureter dilation) at doses ≥10 mg/kg/day (Australian Therapeutic Goods Administration [2014]). (b) Toxicokinetic parameters of abiraterone in rats were extracted from the available report from the TGA (Australian Therapeutic Goods Administration [2014]). […] The average concentration (Cavg) was calculated from the ratio of AUC and the dose interval (τ) of 24 h. The percentage of plasma protein binding of the drug was reported as being 99.8 %, without relevant species differences occurring (US FDA [2011]). (c) The nominal in vitro concentrations equivalent to the concentration used in vivo were calculated using the value of total protein concentration instead of albumin concentration.
Clinical signs included malrotated forepaws/hindpaws, discoloration of the body surface, impaired coat growth, eye opacity, and eye discharge with absence of pupillary reflex were observed (US FDA [2012]). […] The Cavg was calculated as the ratio of AUC and the dose interval (τ) of 24 h. TF is reported to be extensively bound in plasma, probably mostly to albumin, with an average bound fraction of 99.46 % (Russo et al. [2013]). (c) The nominal in vitro concentrations equivalent to the concentration used in vivo in rats and humans (Cmax and Cavg) were determined assuming only binding to the specific drug-binding proteins (albumin and/or α1-acid glycoprotein) (Fig. S2D).
To compare the effective/toxic concentrations found in our study with relevant in vivo concentrations, we used a reverse pharmacokinetic modeling approach for three exemplary compounds: teriflunomide, geldanamycin, and abiraterone. Firstly, we used a literature data mining approach to identify toxic or clinically relevant plasma concentrations reported in published animal studies (in relation to developmental toxicity or neurotoxicity) or clinical measurements (mostly in relation to drug efficacy). Then those values were used as points-of-departure to calculate the nominal equivalent concentrations (NEC) in both cell culture media used in our study, the BHK and N2 medium. These two media (used to expose the ESCs and the ESC-derived neurons) contained different amounts of protein and lipid and therefore required separate calculations of the NEC. […]

[2] = cited from earlier work
Toxicokinetics in rats = type: in vivo; details: plasma, rat
mice = test system: mice; set-up: method as in https://www.spectrumchemical.com/MSDS/TCI-G0334.pdf; details: ref https://www.spectrumchemical.com/MSDS/TCI-G0334.pdf; cited from earlier work
plasma protein = test: Plasma protein binding (plasma bound fraction); type: in vitro ADME; details: assumed, no specific indications found
Protocol: The lipid content and albumin concentrations of the test media N2 and BHK medium were calculated on the basis of the available information provided by the suppliers (Fig. S2A). The data on rat plasma have been adopted from (Verwei et al. [2006]). The original references are (Barber et al. [1990]) for albumin and (DeJongh et al. [1997]) for lipids. Human plasma values were taken from (Gulden and Seibert [2003]). The original data on albumin are from (Lindup [1987]) and for lipids from (Patterson et al. [1988]). Total protein concentrations were calculated based on the assumption that the protein molar mass is similar to the one of albumin (66 kDa). […]
(a) Developmental toxicity (DT)—inducing concentrations were extrapolated from the in vivo study reported in the document by the Australian Therapeutic Goods Administration (Australian Therapeutic Goods Administration [2014]). […] (c) The nominal in vitro concentrations equivalent to the concentration used in vivo were calculated using the value of total protein concentration instead of albumin concentration. […]
(c) The nominal in vitro concentrations equivalent to the concentration used in vivo in rats and humans (Cmax and Cavg) were determined assuming only binding to the specific drug-binding proteins (albumin and/or α1-acid glycoprotein) (Fig. S2D).

[3] = cited from earlier work; remark: listed apart in the source
[4] = set-up: method as in Supko et al. [1995]; details: mouse, i.v.; ref Supko et al. [1995]; cited from earlier work
rats = details: Sprague Dawley rats, GD 6 through LD 20; ref US FDA [2012]; cited from earlier work
[5] = test system: neuronal precursor cells derived from human embryonic stem cells; set-up: method as in Waldmann et al. [2014]; details: ref Waldmann et al. [2014]; cited from earlier work
[6] = test system: neuroepithelial precursor cell migration; set-up: method as in Zimmer et al. [2012]; details: ref Zimmer et al. [2012]; cited from earlier work
[7] = Sprague Dawley, oral, rats, 0.3 mg/kg, estimated proportional to reported kinetics at 1 mg/kg (US FDA [2012])

## C[C@]12CC[C@H](O)CC1=CC[C@@H]1[C@@H]2CC[C@]2(C)C(c3cccnc3)=CC[C@@H]12 [Abiraterone]
[1]; Cavg
  Free concentration in vivo: 0.353 pM
  Total concentration in vivo (ECpl): 0.14 µM
[1]; Cmax
  Free concentration in vivo: 1.63 pM
  Total concentration in vivo (ECpl): 0.647 µM
[2]; humans, daily oral dose of 1000 mg as abiraterone acetate, ref Goldberg and Berrios-Colon [2013]
  AUC at steady state: 1.173 µg·h/mL
[2]; humans, daily oral dose of 1000 mg/kg as abiraterone acetate, ref Goldberg and Berrios-Colon [2013]
  Cmax: 226 ng/mL

## COC1=C2C[C@@H](C)C[C@H](OC)[C@H](O)[C@@H](C)/C=C(\C)[C@H](OC(N)=O)[C@@H](OC)/C=C\C=C(/C)C(=O)NC(=CC1=O)C2=O [Geldanamycin]
Toxicokinetics in rats; Thy1-GFP transgenic, dose of 0.2 mg/kg, calculated from mouse volume of distribution
  Cmax: 1250 ng/mL
mice
  LD50: 1 mg/kg
Plasma protein
  fb,pl (plasma bound fraction): 99%
[3]
  aqueous solubility: poor
[4]
  initial volume of distribution: 0.16 L/kg

## C/C(O)=C(\C#N)C(=O)Nc1ccc(C(F)(F)F)cc1 [Teriflunomide]
Toxicokinetics in rats; [7]
  AUC: ~33 µg·h/mL
  Cmax: ~3000 ng/mL
[1]; Cavg
  Free concentration in vivo: 280000 pM
  Total concentration in vivo (ECpl): 165 µM
rats
  oral dose leading to teratogenicity: 0.3 mg/kg/day
[2]; healthy individuals, daily oral dose of 14 mg, ref Australian Therapeutic Goods Administration [2013]
  24 h AUC at steady state: 1070 µg·h/mL

## CCCC(CCC)C(=O)O [Valproic acid]
[5]
  range of tolerance: up to 25 μM
[6]
  concentration not affecting neuroepithelial precursor cell migration: > 1 mM
